The subject of one data set is PNA-Capture. Kind of data set: Mismatch analysis with microsphere sensor loaded with PNA-based capture strand (FIG. 8). The data set is classed as binding. Conditions: competition with DNA-QTL for PNA-Cap; 40° C., total well volume 200 μL. As for the experimental part:
The approach used in this example involves the competition of quencher labeled target with target for a complementary capture strand on the surface of sensing microspheres.
FIG. 8 is a graph showing mismatch analysis with a microsphere sensor loaded with a PNA-based capture strand (denoted “PNA-Cap”) having a structure shown below. The experiments were performed at 40° C. with a total well volume of 200 μL.

Data set [1] deals with T1, β-secretase enzyme (Homo sapiens, UniProt P56817). Conditions: 30 minutes at CRT, Sensor YY, excitation 440 nm, emission 576 nm. As for the experimental part:
The resulting solution sensor (“Sensor YY”) was made at the beginning of each experiment by incubating a 200-fold dilution of the master stock of “Sensor SS” with BRPE in a ratio that would provide 250 fmol of the latter in 40 μL of the mixture. To 5 μL of a 300 nM solution of BSEC-3 in assay buffer was added 30 ng of β-secretase enzyme in 5 μL of assay buffer. BSEC-3 has a polypeptide structure as set forth above. After incubating the control and sample mixtures for 30 minutes at CRT, 40 μL of the doped solution sensor (Sensor YY) was added to each well. The plate was shaken inside the plate reader for 60 seconds and the wells were probed for fluorescence intensity by exciting the polymer at 440 nm and measuring the emission intensity at 576 nm using a 475 nm cut-off filter. […] This observed difference was a measure of enzyme activity.

Data set [2] concerns the target T1, β-secretase enzyme. The conditions noted are these: 30 minutes at CRT, Sensor SS, excitation 440 nm, emission 530 nm. As for the experimental part: A QTL solution sensor (“Sensor SS”) was prepared by mixing together 56.5 nmol of Avidin (Biotin binding protein, BBP) and 848 nmol of biotinylated PPE polymer (1) in a total volume of 11.3 mL and incubating at CRT for 24 hours. The polymer and the BBP combine with each other through the biotin-avidin interaction to form stable entities. The solution sensor thus prepared was diluted appropriately with buffer at the beginning of each experiment. The structure of polymer (1) is shown below: [drawing 4]
To 5 μL of a 400 nM solution of BSEC-1 (structure shown below) in assay buffer in a 384-well plate was added 30 ng of β-secretase enzyme dissolved in 5 μL of assay buffer.
The mixture was made in triplicate and incubated for 30 minutes at CRT. The control wells contained only peptide and no enzyme. After incubation, a 100-fold dilution of the above solution sensor was added at 20 μL to each well. The plate was shaken inside the microplate reader and the wells were probed by exciting the polymer at 440 nm and measuring the emission intensity at 530 nm using a 475 nm cut-off filter. […] The difference in fluorescence was a measure of enzyme activity.

T1 sequence (P56817 46-501): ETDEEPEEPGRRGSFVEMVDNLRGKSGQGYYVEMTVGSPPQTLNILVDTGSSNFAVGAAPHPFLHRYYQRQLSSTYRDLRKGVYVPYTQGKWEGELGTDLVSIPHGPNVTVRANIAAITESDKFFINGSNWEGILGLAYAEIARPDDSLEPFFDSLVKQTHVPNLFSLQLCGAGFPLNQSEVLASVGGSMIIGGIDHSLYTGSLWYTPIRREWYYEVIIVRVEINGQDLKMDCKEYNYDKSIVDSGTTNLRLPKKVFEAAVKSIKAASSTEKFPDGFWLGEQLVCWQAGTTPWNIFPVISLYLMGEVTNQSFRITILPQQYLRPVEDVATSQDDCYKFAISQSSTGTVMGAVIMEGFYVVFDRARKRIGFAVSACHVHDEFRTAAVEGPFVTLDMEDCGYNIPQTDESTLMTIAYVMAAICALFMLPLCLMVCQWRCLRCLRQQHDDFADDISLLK

As for “5′-TGCATATTTAATGGAATTTA-3′ (TGCATATTTAATGGAATTTA; listed as DNA, chemistry not fully specified; the letters are possibly those of the target site) [AA double mismatch target]”, the “relative fluorescence with increasing amounts of target” value with PNA-Capture is reported as “observed for all targets except”.

As to “5′-TGCATTTTTAATGGTATTTA-3′ (TGCATTTTTAATGGTATTTA; listed as DNA, chemistry not fully specified; the letters are possibly those of the target site) [perfect complement target]”, the “relative fluorescence with increasing amounts of target” value in the data set on PNA-Capture is given as “much higher”.

“(AZO)-T-E-E-I-S-E-V-N-L-D-A-E-F-(K-Biotin)-OH [BSEC-3]”: the “RFU, sample wells containing enzyme” value on β-secretase enzyme [1] (5 μL of 300 nM peptide + 30 ng β-secretase) was 14,500±200 RFU. Further, the “average RFU value, control wells” value at β-secretase enzyme [1] (5 μL of 300 nM peptide, no enzyme) is reported as 5,200±200 RFU.

With “(QSY7)-T-E-E-O-S-E-V-N-L-D-A-E-F-(K-Biotin)-OH [BSEC-1]”, at β-secretase enzyme [2] (5 μL of 400 nM peptide + 30 ng β-secretase), the “average RFU value, sample wells containing enzyme” value was 8,350±200 RFU. Besides, the “average RFU value, control wells (only peptide and no enzyme)” value at β-secretase enzyme [2] (5 μL of 400 nM peptide, no enzyme) was 5,400±200 RFU.

In the case of β-secretase enzyme, in the data set with BSEC-1, the average RFU (polymer emission at 530 nm, Sensor SS) after 30 min incubation of 400 nM BSEC-1 with 30 ng β-secretase; control wells with peptide only gave 5,400±200 was determined as 8350 ± 200 RFU. Moreover, the average RFU (emission at 576 nm, BRPE-doped Sensor YY) after 30 min incubation of 300 nM BSEC-3 with 30 ng β-secretase; control wells gave 5,200±200 in the data set on BSEC-3 was determined as 14500 ± 200 RFU.

The values are drawn from patent US20040175768A1, “Methods of biosensing using fluorescent polymers and quencher-tether-ligand bioconjugates” (priority 2002, published 2004).
